Earlier results in PMC5102340 (Advanced functional materials, 2016).
Where two headings read alike, the source gives them in different places.

pKa1: ≈ 9.4 | pKa2: ≈ 13.7 | pKa1 (listed as catechol): 9.4
SMILES: Oc1ccccc1O [Catechol]
